From ChEMBL document CHEMBL5465560, “Selectivity Literature for EUbOPEN Chemogenomic Library” (2024)

Legend:
Activated CDC42 kinase 1 = Activated CDC42 kinase 1 (Homo sapiens, UniProt Q07912); assay: Selectivity interaction (KinomeScan (DiscoverX)) EUB0001049a TNK2; settings: at 1 µM
[1] = molecular target: Macrophage colony-stimulating factor 1 receptor (Homo sapiens) (UniProt P07333); assay: Selectivity interaction (Kinase screening (Nanosyn)) EUB0000604a CSF1R
[2] = molecular target: Mitogen-activated protein kinase 10 (Homo sapiens, UniProt P53779); assay: Selectivity interaction (KinomeScan (DiscoverX)) EUB0000655a MAPK10; settings: at 10 µM
[3] = molecular target: Activin receptor type-1-like (Homo sapiens) (UniProt P37023); assay: Selectivity interaction (KinomeScan (DiscoverX)) EUB0000655a ACVRL1; settings: at 10 µM
[4] = molecular target: T1, Tyrosine-protein kinase Mer (Homo sapiens) (UniProt Q12866); assay: Selectivity interaction (KinomeScan (DiscoverX)) EUB0000045b MERTK
T1 sequence (whole entry): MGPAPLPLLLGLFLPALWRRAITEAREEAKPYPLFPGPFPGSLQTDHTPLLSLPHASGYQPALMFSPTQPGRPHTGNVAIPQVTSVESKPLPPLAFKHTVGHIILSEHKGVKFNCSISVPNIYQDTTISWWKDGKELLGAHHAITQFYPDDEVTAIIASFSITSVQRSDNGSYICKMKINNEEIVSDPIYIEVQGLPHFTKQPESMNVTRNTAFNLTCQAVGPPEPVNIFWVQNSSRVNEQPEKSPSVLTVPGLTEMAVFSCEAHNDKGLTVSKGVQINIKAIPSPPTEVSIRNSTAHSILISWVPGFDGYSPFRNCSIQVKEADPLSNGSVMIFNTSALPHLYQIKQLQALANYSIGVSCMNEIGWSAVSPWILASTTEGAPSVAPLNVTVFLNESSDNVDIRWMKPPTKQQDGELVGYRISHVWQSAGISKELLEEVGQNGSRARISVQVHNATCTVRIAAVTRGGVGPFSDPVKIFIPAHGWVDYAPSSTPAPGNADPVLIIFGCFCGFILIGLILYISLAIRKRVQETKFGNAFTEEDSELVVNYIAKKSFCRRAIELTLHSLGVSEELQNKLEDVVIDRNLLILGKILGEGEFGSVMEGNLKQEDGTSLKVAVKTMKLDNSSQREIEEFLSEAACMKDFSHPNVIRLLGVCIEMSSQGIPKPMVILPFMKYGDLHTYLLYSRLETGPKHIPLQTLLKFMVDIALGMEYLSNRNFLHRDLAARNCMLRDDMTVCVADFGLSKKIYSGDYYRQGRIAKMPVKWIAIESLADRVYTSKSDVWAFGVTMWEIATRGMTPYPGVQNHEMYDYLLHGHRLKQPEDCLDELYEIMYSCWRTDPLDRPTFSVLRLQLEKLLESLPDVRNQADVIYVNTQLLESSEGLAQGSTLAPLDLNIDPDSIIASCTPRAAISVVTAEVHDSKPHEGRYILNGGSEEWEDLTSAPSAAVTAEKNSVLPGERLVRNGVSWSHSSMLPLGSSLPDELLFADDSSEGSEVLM

[5] = molecular target: T2, Ephrin type-B receptor 1 (Homo sapiens) (UniProt P54762); settings: at 10 µM
T2 sequence (whole entry): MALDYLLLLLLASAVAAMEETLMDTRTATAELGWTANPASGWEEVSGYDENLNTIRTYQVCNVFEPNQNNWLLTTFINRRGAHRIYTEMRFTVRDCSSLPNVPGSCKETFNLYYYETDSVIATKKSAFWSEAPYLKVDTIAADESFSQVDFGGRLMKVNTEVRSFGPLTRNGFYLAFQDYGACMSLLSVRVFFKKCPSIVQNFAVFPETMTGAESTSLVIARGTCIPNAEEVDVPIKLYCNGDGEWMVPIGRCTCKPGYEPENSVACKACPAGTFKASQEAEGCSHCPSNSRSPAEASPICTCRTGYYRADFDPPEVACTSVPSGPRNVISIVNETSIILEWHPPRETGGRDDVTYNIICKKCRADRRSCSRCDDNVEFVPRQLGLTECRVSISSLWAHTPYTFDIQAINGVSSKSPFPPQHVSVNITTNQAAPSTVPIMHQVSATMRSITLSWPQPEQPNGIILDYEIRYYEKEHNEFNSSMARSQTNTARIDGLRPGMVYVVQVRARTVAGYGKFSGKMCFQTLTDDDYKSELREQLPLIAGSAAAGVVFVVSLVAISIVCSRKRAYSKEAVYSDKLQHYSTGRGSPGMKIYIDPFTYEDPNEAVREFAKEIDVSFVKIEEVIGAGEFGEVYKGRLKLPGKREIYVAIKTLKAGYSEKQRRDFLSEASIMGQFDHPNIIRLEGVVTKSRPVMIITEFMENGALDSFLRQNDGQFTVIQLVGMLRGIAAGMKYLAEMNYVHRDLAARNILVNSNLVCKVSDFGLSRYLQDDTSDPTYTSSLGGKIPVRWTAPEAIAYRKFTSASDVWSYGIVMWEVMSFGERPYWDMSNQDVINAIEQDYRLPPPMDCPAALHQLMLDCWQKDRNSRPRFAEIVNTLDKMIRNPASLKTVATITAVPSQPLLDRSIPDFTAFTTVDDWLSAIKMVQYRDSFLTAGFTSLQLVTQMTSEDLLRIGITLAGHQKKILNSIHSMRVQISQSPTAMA

Activin receptor type-1-like (Homo sapiens), sequence (P37023 whole entry): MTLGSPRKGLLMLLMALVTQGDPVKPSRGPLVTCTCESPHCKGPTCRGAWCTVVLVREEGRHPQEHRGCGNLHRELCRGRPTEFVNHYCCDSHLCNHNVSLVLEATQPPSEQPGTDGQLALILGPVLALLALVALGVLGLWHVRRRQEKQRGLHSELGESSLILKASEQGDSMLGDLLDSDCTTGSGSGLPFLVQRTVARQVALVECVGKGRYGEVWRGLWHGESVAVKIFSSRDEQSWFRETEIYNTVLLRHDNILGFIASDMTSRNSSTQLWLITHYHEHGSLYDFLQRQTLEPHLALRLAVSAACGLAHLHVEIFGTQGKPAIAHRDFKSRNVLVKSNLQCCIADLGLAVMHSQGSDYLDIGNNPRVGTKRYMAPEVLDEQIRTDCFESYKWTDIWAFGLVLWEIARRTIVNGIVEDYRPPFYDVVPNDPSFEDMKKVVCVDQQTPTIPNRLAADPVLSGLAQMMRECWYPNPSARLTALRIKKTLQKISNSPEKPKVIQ
Macrophage colony-stimulating factor 1 receptor (Homo sapiens), sequence (P07333 whole entry): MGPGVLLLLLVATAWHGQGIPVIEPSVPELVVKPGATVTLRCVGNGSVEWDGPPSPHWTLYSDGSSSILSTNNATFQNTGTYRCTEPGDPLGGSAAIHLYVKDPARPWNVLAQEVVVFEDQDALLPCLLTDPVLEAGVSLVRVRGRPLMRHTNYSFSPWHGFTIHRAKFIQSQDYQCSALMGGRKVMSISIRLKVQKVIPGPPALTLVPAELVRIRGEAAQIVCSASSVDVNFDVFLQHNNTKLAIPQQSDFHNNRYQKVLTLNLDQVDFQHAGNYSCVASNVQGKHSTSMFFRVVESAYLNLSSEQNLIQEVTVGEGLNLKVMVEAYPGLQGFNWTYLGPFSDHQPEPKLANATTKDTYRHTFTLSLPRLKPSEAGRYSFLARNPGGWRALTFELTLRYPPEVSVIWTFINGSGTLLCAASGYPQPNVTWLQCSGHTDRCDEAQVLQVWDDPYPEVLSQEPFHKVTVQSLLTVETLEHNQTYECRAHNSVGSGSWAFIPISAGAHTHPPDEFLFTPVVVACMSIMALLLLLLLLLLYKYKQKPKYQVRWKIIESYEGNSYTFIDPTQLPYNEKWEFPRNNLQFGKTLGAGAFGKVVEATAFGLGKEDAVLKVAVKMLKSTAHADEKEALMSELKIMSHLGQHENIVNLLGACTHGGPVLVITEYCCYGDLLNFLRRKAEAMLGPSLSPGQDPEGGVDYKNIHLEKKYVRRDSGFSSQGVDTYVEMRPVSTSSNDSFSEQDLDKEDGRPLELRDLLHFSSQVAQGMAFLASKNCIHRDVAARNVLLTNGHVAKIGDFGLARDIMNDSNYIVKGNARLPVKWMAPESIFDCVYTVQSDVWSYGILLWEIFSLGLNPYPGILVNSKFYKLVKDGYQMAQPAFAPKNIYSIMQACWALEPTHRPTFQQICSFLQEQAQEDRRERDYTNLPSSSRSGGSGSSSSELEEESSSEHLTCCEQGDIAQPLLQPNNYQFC
Activated CDC42 kinase 1, sequence (Q07912 whole entry, looked up): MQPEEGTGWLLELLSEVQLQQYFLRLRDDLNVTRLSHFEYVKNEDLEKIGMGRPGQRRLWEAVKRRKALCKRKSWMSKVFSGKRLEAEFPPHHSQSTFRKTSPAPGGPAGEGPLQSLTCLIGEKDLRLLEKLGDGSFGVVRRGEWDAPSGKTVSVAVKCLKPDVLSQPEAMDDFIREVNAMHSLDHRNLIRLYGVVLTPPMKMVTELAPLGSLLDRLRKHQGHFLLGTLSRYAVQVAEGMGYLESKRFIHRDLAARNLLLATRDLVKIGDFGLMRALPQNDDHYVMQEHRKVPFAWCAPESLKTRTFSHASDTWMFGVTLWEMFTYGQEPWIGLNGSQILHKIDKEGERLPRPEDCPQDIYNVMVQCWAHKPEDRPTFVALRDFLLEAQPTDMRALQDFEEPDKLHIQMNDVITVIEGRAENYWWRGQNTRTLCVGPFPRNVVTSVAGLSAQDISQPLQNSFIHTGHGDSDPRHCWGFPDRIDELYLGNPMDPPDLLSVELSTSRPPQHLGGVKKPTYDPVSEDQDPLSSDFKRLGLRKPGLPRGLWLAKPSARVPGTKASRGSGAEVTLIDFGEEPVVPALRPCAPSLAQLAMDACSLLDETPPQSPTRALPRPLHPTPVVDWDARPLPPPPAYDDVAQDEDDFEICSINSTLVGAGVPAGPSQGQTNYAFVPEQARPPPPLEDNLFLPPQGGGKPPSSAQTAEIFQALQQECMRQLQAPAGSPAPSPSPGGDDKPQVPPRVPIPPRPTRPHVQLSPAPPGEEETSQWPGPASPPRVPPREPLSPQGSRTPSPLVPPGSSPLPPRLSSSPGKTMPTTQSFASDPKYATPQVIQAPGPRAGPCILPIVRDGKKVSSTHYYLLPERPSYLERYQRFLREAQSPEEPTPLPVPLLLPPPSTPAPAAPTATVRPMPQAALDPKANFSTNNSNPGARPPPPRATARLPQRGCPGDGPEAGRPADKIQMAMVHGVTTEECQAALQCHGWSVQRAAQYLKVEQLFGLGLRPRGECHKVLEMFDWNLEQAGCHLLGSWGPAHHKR
Mitogen-activated protein kinase 10, sequence (P53779 whole entry): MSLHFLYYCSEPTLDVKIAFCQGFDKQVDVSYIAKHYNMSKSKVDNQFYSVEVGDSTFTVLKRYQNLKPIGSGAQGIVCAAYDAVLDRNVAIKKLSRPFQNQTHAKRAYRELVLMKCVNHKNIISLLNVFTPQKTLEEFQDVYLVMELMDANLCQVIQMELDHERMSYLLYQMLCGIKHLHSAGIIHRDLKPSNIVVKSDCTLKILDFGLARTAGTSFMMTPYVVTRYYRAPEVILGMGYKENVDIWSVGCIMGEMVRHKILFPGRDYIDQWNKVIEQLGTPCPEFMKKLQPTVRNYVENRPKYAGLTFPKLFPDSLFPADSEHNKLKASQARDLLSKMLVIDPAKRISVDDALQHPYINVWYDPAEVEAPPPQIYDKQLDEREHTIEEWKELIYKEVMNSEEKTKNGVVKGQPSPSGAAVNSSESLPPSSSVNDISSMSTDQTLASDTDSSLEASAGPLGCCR

COc1cc(Nc2nc(C)cc(-c3cnn4nc(OC)ccc34)n2)cc(C(F)(F)F)c1
% of control (Activated CDC42 kinase 1): 77%

Cc1cnc(Nc2ccc(F)cc2Cl)nc1-c1c[nH]c(C(=O)N[C@H](CO)c2cccc(Cl)c2)c1
% of inhibition [1]: 6%

CN(C)CCOc1ccc(-c2nc(-c3ccncc3)c(-c3ccc4c(c3)CC/C4=N\O)[nH]2)cc1
% of control [2]: 8.6% | % of control [3]: 67%

C=CC(=O)Nc1cc(-n2c(=O)ccc3cnc4ccc(-c5ccc(NS(C)(=O)=O)cc5)cc4c32)ccc1C
% of control ([4]; at 1 µM): 72% | % of control ([4]; at 10 µM): 100%

Cc1cc([C@@H](C)Nc2ccccc2C(=O)O)c2nc(N3CCOCC3)cc(=O)n2c1 [AZD-6482]
% of control [5]: 98%
